From patent US20120295838A1, “Selective poly-substituted glycine antibiotics and related compositions” (priority 2008, published 2012)
Converted amounts (≈) assume the structure as drawn. Like-named read-outs stand apart in the source and are kept apart here. Numbered stars: 1 amine (or outer) side, 2 acyl side, 3 side chain; on linkers, the order of the positions; unused ones are H or OH. Square brackets hold non-standard residues; d marks the D form. Ends that are not written are not given here. Peptide text beside a SMILES is read from it. X1 = CC(C)[C@H](C)N(CC(=O)[*:2])[*:1]; Nspe = C[C@H](NCC(=O)O)c1ccccc1; Nphe = O=C(O)CNCc1ccccc1; Nlys = NCCCCNCC(=O)O

Columns and labels:
Type in all cases: cell-based
[1] = tested on: Enterococcus faecalis ATCC 29212; details: for Selectivity ratio (SR): Table 7B, 10% hemolytic dose divided by MIC
Procedure: (§1) Antibacterial assays. MICs were determined according to CLSI M7-A6 protocols in a 96-well microtiter plate. In test wells, 50 uL bacterial inoculum (5×10^5 CFU/ml) in Mueller-Hinton broth (MHB) was added to 50 μL peptoid solution in MHB (prepared by 1:2 serial dilutions). Positive controls contained 50 μL inoculum and 50 μL MHB without peptoid. […] MIC values reported were reproducible between three independent experimental replicates, each consisting of two parallel trials. Broad-spectrum antimicrobial susceptibility testing was performed against BSL2 pathogens by Nova Biologicals, Inc. (Conroe, Tex.).
(§2) Broad-spectrum antibacterial assays. MICs of compounds were determined by microdilution procedure in Mueller-Hinton broth (MHB) in accordance with CLSI M7-A6 protocols in a manner similar to that described for the screen antibacterial assays. Inoculated microtiter plates were incubated at 35° C. for 24 hours prior to the result being recorded. Four ATCC strains that were used as standards are recommended by CLSI: Pseudomonas aeruginosa ATCC 27853, Escherichia coli ATCC 25922, Staphylococcus aureus ATCC 29213 and Enterococcus faecalis ATCC 29212. Other strains from the ATCC collection include Proteus vulgaris ATCC 49132, Proteus mirabilis ATCC 35659, Klebsiella pneumoniae ATCC 33495, Enterobacter aerogenes ATCC 35029 and Serratia marcescens ATCC 13880. S. aureus NRS100 (COL) is a well characterized methicillian-resistant S. aureus (MRSA) strain. The strains S. aureus VAN1 and S. aureus VAN2, vancomycin-resistant MRSA strains that were isolated in Michigan and Pennsylvania, were the first vancomycin-resistant strains clinically isolated. S. aureus NRS 119 and S. aureus NRS 120 are linezolid-resistant isolates from the Network on Antimicrobial Resistance in S. aureus (NARSA) collection. E. faecalis 99 and E. faecium 106 are vancomycin-resistant enterococcal strains.

Enterococcus faecalis 99 = details: for Selectivity ratio (SR): Table 7B, 10% hemolytic dose divided by MIC
Procedure: as §1, §2

[2] = tested on: Staphylococcus aureus NRS100 (COL); details: for Selectivity ratio (SR): Table 7B, 10% hemolytic dose divided by MIC, S. aureus NRS100 (COL)
Procedure: as §1, §2

[3] = tested on: Enterobacter aerogenes ATCC 35029; details: for Selectivity ratio (SR): Table 7B, 10% hemolytic dose divided by MIC
Procedure: as §1, §2

[4] = tested on: Proteus vulgaris ATCC 49132; details: for Selectivity ratio (SR): Table 7B, 10% hemolytic dose divided by MIC
Procedure: as §1, §2

[5] = tested on: Staphylococcus aureus VAN1; details: for Selectivity ratio (SR): Table 7B, 10% hemolytic dose divided by MIC, S. aureus VAN1
Procedure: as §1, §2

[6] = tested on: Klebsiella pneumoniae ATCC 33495; details: for Selectivity ratio (SR): Table 7B, 10% hemolytic dose divided by MIC
Procedure: as §1, §2

[7] = tested on: Staphylococcus aureus NRS119; details: for Selectivity ratio (SR): Table 7B, 10% hemolytic dose divided by MIC, S. aureus NRS119
Procedure: as §1, §2

[8] = tested on: Pseudomonas aeruginosa ATCC 27853; details: for Selectivity ratio (SR): Table 7B, 10% hemolytic dose divided by MIC
Procedure: as §1, §2

[9] = tested on: Escherichia coli ATCC 25922; details: for Selectivity ratio (SR): Table 7B, 10% hemolytic dose divided by MIC
Procedure: as §1, §2

Enterococcus faecium 106 = details: for Selectivity ratio (SR): Table 7B, 10% hemolytic dose divided by MIC
Procedure: as §1, §2

[10] = tested on: Staphylococcus aureus NRS120; details: for Selectivity ratio (SR): Table 7B, 10% hemolytic dose divided by MIC, S. aureus NRS120
Procedure: as §1, §2

[11] = tested on: Staphylococcus aureus VAN2; details: for Selectivity ratio (SR): Table 7B, 10% hemolytic dose divided by MIC, S. aureus VAN2
Procedure: as §1, §2

[12] = tested on: Staphylococcus aureus ATCC 29213; details: for Selectivity ratio (SR): Table 7B, 10% hemolytic dose divided by MIC
Procedure: as §1, §2

Compound	Selectivity ratio (SR) ([1]; E. faecalis ATCC 29212)	Selectivity ratio (SR) (Enterococcus faecalis 99; E. faecalis 99)	Selectivity ratio (SR) [2]	Selectivity ratio (SR) ([3]; E. aerogenes ATCC 35029)	Selectivity ratio (SR) ([4]; P. vulgaris ATCC 49132)	Selectivity ratio (SR) [5]	Selectivity ratio (SR) ([6]; K. pneumoniae ATCC 33495)	Selectivity ratio (SR) [7]	Selectivity ratio (SR) ([8]; P. aeruginosa ATCC 27853)	Selectivity ratio (SR) ([9]; E. coli ATCC 25922)	Selectivity ratio (SR) (Enterococcus faecium 106; E. faecium 106)	Selectivity ratio (SR) [10]	Selectivity ratio (SR) [11]	Selectivity ratio (SR) ([12]; S. aureus ATCC 29213)	other results
GIGKFLKKAKKFGKAFVKILKK-NH2 [pexiganan, reference compound]	5.7	1.4	11	5.7	5.7	11	23	2.8	46	23	46	2.8	23	5.7	MIC ([1]; Table 7A, E. faecalis ATCC 29212): 32 µg/mL; MIC (Enterococcus faecalis 99; Table 7A, E. faecalis 99): 128 µg/mL; MIC ([2]; Table 7A, S. aureus NRS100 (COL) (MRSA)): 16 µg/mL; MIC ([3]; Table 7A, E. aerogenes ATCC 35029): 32 µg/mL; MIC ([4]; Table 7A, P. vulgaris ATCC 49132): 32 µg/mL; MIC ([5]; Table 7A, S. aureus VAN1 (MRSA, vancomycin-resistant)): 16 µg/mL; MIC ([6]; Table 7A, K. pneumoniae ATCC 33495): 8 µg/mL; MIC ([7]; Table 7A, S. aureus NRS119 (linezolid-resistant)): 64 µg/mL; MIC ([8]; Table 7A, P. aeruginosa ATCC 27853): 4 µg/mL; MIC ([9]; Table 7A, E. coli ATCC 25922): 8 µg/mL; MIC (Enterococcus faecium 106; Table 7A, E. faecium 106): 4 µg/mL; MIC ([10]; Table 7A, S. aureus NRS120 (linezolid-resistant)): 64 µg/mL; MIC ([11]; Table 7A, S. aureus VAN2 (MRSA, vancomycin-resistant)): 8 µg/mL; MIC ([12]; Table 7A, S. aureus ATCC 29213): 32 µg/mL
NCCCCNCC(=O)N(CC(=O)N(CC(=O)N(CCCCN)CC(=O)N(CC(=O)N(CC(=O)N(CCCCN)CC(=O)N(CC(=O)N(CC(=O)N(CCCCN)CC(=O)N(CC(=O)N(CC(N)=O)Cc1ccccc1)Cc1ccccc1)Cc1ccccc1)Cc1ccccc1)Cc1ccccc1)Cc1ccccc1)Cc1ccccc1)Cc1ccccc1 [1achiral, H-(Nlys-Npm-Npm)4-NH2] (H-[Nlys][Nphe][Nphe][Nlys][Nphe][Nphe][Nlys][Nphe][Nphe][Nlys][Nphe][Nphe]-NH2)	19	4.9	39	2.4	9.8	39	39	19	19	19	79	19	39	39	–
CC(C)[C@H](C)N(CC(=O)N(CC(=O)N(CCCCN)CC(=O)N(CC(=O)N(CC(=O)N(CCCCN)CC(=O)N(CC(=O)N(CC(=O)N(CCCCN)CC(=O)N(CC(=O)N(CC(N)=O)[C@@H](C)c1ccccc1)[C@@H](C)C(C)C)[C@@H](C)c1ccccc1)[C@@H](C)C(C)C)[C@@H](C)c1ccccc1)[C@@H](C)C(C)C)[C@@H](C)c1ccccc1)C(=O)CNCCCCN [1-Nsdp2,5,8,11, H-(Nlys-Nsdp-Nspe)4-NH2] (H-[Nlys][X1][Nspe][Nlys][X1][Nspe][Nlys][X1][Nspe][Nlys][X1][Nspe]-NH2)	23	2.9	23	5.8	5.8	23	23	12	12	23	46	23	23	23	MIC ([1]; ATCC 29212): 8 µg/mL (≈ 4.75 µM); MIC (Enterococcus faecalis 99; 99): 64 µg/mL (≈ 38 µM); MIC ([2]; NRS100 (COL)): 8 µg/mL (≈ 4.75 µM); MIC ([3]; ATCC 35029): 32 µg/mL (≈ 19 µM); MIC ([4]; ATCC 49132): 32 µg/mL (≈ 19 µM); MIC ([5]; VAN1): 8 µg/mL (≈ 4.75 µM); MIC ([6]; ATCC 33495): 8 µg/mL (≈ 4.75 µM); MIC ([7]; NRS119): 16 µg/mL (≈ 9.51 µM); MIC ([8]; ATCC 27853): 16 µg/mL (≈ 9.51 µM); MIC ([9]; ATCC 25922): 8 µg/mL (≈ 4.75 µM); MIC (Enterococcus faecium 106; 106): 4 µg/mL (≈ 2.38 µM); MIC ([10]; NRS120): 16 µg/mL (≈ 9.51 µM); MIC ([11]; VAN2): 8 µg/mL (≈ 4.75 µM); MIC ([12]; ATCC 29213): 8 µg/mL (≈ 4.75 µM)
